How the values were obtained:
[1] = tested on: MOLM-14 D835Y (endogenous FLT3 ITD and transfected FLT3 D835Y); assay: MOLM-14 D835Y cell proliferation assay (CellTiter-Glo); format: cell-based; settings: Homo sapiens, MOLM-14, 72 h; 3 d growth, GMean
Outline: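 Three-day proliferation at 37 °C/5% CO2 of FLT3-ITD MOLM-14 lines with D835Y or F691L mutation, seeded 1×10^4 per well. Compounds at eight points, top 1 μM final, 0.2% DMSO. ATP luminescence (CellTiter-Glo) gives IC50.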

BA/F3-FLT3-ITD + D835Y = target: T1, BA/F3-FLT3-ITD + D835Y (Homo sapiens, UniProt P36888, D835Y, cells depend on it, form not given); assay: Engineered BA/F3 cell growth assay, FLT3 ITD/D835Y; format: cell-based, murine; settings: 3 d growth
T1 sequence (P36888 with tags, fused parts or gaps INS600HVDFREYEYD/D835Y): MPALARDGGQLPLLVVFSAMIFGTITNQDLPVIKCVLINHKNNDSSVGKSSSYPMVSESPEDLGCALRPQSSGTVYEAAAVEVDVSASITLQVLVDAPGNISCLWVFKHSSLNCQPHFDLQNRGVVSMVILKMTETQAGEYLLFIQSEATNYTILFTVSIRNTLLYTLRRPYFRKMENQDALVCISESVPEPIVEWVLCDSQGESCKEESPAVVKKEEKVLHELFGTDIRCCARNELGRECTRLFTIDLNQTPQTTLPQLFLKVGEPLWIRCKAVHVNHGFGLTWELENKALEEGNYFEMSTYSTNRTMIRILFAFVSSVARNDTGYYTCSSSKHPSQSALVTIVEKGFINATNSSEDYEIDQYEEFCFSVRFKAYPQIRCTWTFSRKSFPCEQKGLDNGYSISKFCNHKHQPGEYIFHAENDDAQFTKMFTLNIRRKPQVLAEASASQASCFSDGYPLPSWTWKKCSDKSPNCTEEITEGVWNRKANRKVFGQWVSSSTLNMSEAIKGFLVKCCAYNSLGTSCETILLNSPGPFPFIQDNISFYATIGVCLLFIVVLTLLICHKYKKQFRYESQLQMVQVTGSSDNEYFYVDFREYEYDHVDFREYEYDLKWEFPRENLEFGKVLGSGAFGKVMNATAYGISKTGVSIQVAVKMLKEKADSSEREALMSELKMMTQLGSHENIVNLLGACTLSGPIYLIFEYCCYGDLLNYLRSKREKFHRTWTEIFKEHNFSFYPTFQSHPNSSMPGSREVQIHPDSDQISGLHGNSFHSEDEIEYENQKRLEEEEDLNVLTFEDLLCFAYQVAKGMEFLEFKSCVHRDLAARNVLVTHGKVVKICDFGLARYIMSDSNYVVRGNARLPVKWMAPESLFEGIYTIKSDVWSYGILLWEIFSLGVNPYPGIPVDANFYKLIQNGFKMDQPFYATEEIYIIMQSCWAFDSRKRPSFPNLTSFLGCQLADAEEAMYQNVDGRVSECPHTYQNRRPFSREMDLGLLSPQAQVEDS
Outline: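 IC50 derived from CellTiter-Glo ATP luminescence after 3 days at 37 °C, 5% CO2, over eight 1:3 dilutions from 1 μM (0.2% DMSO final). Cells: IL-3-independent murine Ba/F3 expressing full-length FLT3 ITD/D835Y, 1×10^4 per well.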

SMILES	IC50 [1]	GI50 (BA/F3-FLT3-ITD + D835Y)
COc1ncc(NC(=O)Cc2cc(F)c(-c3cnc(Nc4cnn(C)c4)nc3)cc2F)cc1C(F)(F)F [Compound P-0208, 2-[2,5-difluoro-4-[2-[(1-methylpyrazol-4-yl)amino]pyrimidin-5-yl]phenyl]-N-[6-methoxy-5-(trifluoromethyl)-3-pyridyl]acetamide]	0.0001 to 10 µM	0.0001 to 10 µM
O=C(Cc1ccc(-c2cnc(Nc3cnn(C(F)F)c3)nc2)cc1)Nc1cncc(C(F)(F)F)c1 [Compound P-0209, 2-[4-[2-[[1-(difluoromethyl)pyrazol-4-yl]amino]pyrimidin-5-yl]phenyl]-N-[5-(trifluoromethyl)-3-pyridyl]acetamide]	0.0001 to 10 µM	0.0001 to 10 µM
Cc1ncc(NC(=O)Cc2ccc(-c3cnc(Nc4cnn(C(F)F)c4)nc3)cc2)cc1C(F)(F)F [Compound P-0210, 2-[4-[2-[[1-(difluoromethyl)pyrazol-4-yl]amino]pyrimidin-5-yl]phenyl]-N-[6-methyl-5-(trifluoromethyl)-3-pyridyl]acetamide]	0.0001 to 10 µM	0.0001 to 10 µM
COc1ncc(NC(=O)Cc2ccc(-c3cnc(Nc4cnn(C(F)F)c4)nc3)cc2)cc1C(F)(F)F [Compound P-0211, 2-[4-[2-[[1-(difluoromethyl)pyrazol-4-yl]amino]pyrimidin-5-yl]phenyl]-N-[6-methoxy-5-(trifluoromethyl)-3-pyridyl]acetamide]	0.0001 to 10 µM	0.0001 to 10 µM
COc1ncc(NC(=O)Cc2ccc(-c3cnc4[nH]c(C#CC(C)(C)O)cc4c3)cc2)cc1C(F)(F)F [Compound P-0214, 2-(4-(2-(3-hydroxy-3-methylbut-1-yn-1-yl)-1H-pyrrolo[2,3-b]pyridin-5-yl)phenyl)-N-(6-methoxy-5-(trifluoromethyl)pyridin-3-yl)acetamide]	0.0001 to 10 µM	0.0001 to 10 µM
COc1ncc(NC(=O)Cc2ccc(-c3cnc4[nH]c(C#CC(C)(C)C)cc4c3)cc2)cc1C(F)(F)F [Compound P-0219, 2-[4-[2-(3,3-dimethylbut-1-ynyl)-1H-pyrrolo[2,3-b]pyridin-5-yl]phenyl]-N-[6-methoxy-5-(trifluoromethyl)-3-pyridyl]acetamide]	0.0001 to 10 µM	0.0001 to 10 µM
COc1ncc(NC(=O)Cc2ccc(-c3cnc(Nc4cn[nH]c4C)nc3)cc2)cc1C(F)(F)F [Compound P-0221, N-[6-methoxy-5-(trifluoromethyl)-3-pyridyl]-2-[4-[2-[(5-methyl-1H-pyrazol-4-yl)amino]pyrimidin-5-yl]phenyl]acetamide]	0.0001 to 10 µM	0.0001 to 10 µM
COCCn1cc(Nc2ncc(-c3ccc(CC(=O)Nc4cc(C(F)(F)F)ccn4)cc3)cn2)cn1 [Compound P-0222, 2-[4-[2-[[1-(2-methoxyethyl)pyrazol-4-yl]amino]pyrimidin-5-yl]phenyl]-N-[4-(trifluoromethyl)-2-pyridyl]acetamide]	0.0001 to 10 µM	0.0001 to 10 µM
COc1ncc(NC(=O)Cc2ccc(-c3cnc4[nH]c(C#Cc5cncn5C)cc4c3)cc2)cc1C(F)(F)F [Compound P-0227, N-[6-methoxy-5-(trifluoromethyl)-3-pyridyl]-2-[4-[2-[2-(3-methylimidazol-4-yl)ethynyl]-1H-pyrrolo[2,3-b]pyridin-5-yl]phenyl]acetamide]	0.0001 to 10 µM	0.0001 to 10 µM
Cc1nn(C)cc1Nc1ncc(-c2ccc(CC(=O)Nc3cnc(C)c(C(F)(F)F)c3)cc2)cn1 [Compound P-0228, 2-[4-[2-[(1,3-dimethylpyrazol-4-yl)amino]pyrimidin-5-yl]phenyl]-N-[6-methyl-5-(trifluoromethyl)-3-pyridyl]acetamide]	0.0001 to 10 µM	0.0001 to 10 µM

Further lines, results first:

IC50 [1]	GI50 (BA/F3-FLT3-ITD + D835Y)	SMILES
0.0001 to 10 µM	0.0001 to 10 µM	Cc1ncc(NC(=O)Cc2ccc(-c3cnc(Nc4cnn(C)c4C)nc3)cc2)cc1C(F)(F)F [Compound P-0229, 2-[4-[2-[(1,5-dimethylpyrazol-4-yl)amino]pyrimidin-5-yl]phenyl]-N-[6-methyl-5-(trifluoromethyl)-3-pyridyl]acetamide]
0.0001 to 10 µM	0.0001 to 10 µM	O=C(Cc1ccc(-c2cnc(Nc3cnn(C4CC4)c3)nc2)cc1)Nc1cncc(C(F)(F)F)c1 [Compound P-0231, 2-[4-[2-[(1-cyclopropylpyrazol-4-yl)amino]pyrimidin-5-yl]phenyl]-N-[5-(trifluoromethyl)-3-pyridyl]acetamide]
0.0001 to 10 µM	0.0001 to 10 µM	Cc1ncc(NC(=O)Cc2ccc(-c3cnc(Nc4cnn(C5CC5)c4)nc3)cc2)cc1C(F)(F)F [Compound P-0232, 2-[4-[2-[(1-cyclopropylpyrazol-4-yl)amino]pyrimidin-5-yl]phenyl]-N-[6-methyl-5-(trifluoromethyl)-3-pyridyl]acetamide]
0.0001 to 10 µM	0.0001 to 10 µM	O=C(Cc1ccc(-c2cnc(Nc3cnn(C4CC4)c3)nc2)cc1)Nc1cnc(Cl)c(C(F)(F)F)c1 [Compound P-0233, N-[6-chloro-5-(trifluoromethyl)-3-pyridyl]-2-[4-[2-[(1-cyclopropylpyrazol-4-yl)amino]pyrimidin-5-yl]phenyl]acetamide]
0.0001 to 10 µM	0.0001 to 10 µM	COc1ncc(NC(=O)Cc2ccc(-c3cnc(Nc4cnn(C5CC5)c4)nc3)cc2)cc1C(F)(F)F [Compound P-0234, 2-[4-[2-[(1-cyclopropylpyrazol-4-yl)amino]pyrimidin-5-yl]phenyl]-N-[6-methoxy-5-(trifluoromethyl)-3-pyridyl]acetamide]
0.0001 to 10 µM	0.0001 to 10 µM	O=C(Cc1ccc(-c2cnc(Nc3cnn(C4CC4)c3)nc2)cc1)Nc1ccc(C(F)(F)F)nc1 [Compound P-0235, 2-[4-[2-[(1-cyclopropylpyrazol-4-yl)amino]pyrimidin-5-yl]phenyl]-N-[6-(trifluoromethyl)-3-pyridyl]acetamide]
0.0001 to 10 µM	0.0001 to 10 µM	O=C(Cc1ccc(-c2cnc(Nc3cnn(C4CC4)c3)nc2)cc1)Nc1ccc(C(F)(F)F)cn1 [Compound P-0236, 2-[4-[2-[(1-cyclopropylpyrazol-4-yl)amino]pyrimidin-5-yl]phenyl]-N-[5-(trifluoromethyl)-2-pyridyl]acetamide]
0.0001 to 10 µM	0.0001 to 10 µM	O=C(Cc1ccc(-c2cnc(Nc3cnn(C4CC4)c3)nc2)cc1)Nc1cc(C(F)(F)F)ccn1 [Compound P-0237, 2-[4-[2-[(1-cyclopropylpyrazol-4-yl)amino]pyrimidin-5-yl]phenyl]-N-[4-(trifluoromethyl)-2-pyridyl]acetamide]
0.0001 to 10 µM	0.0001 to 10 µM	O=C(Cc1ccc(-c2cnc(Nc3cnn(C4CC4)c3)nc2)cc1F)Nc1cncc(C(F)(F)F)c1 [Compound P-0238, 2-[4-[2-[(1-cyclopropylpyrazol-4-yl)amino]pyrimidin-5-yl]-2-fluoro-phenyl]-N-[5-(trifluoromethyl)-3-pyridyl]acetamide]
0.0001 to 10 µM	0.0001 to 10 µM	Cc1ncc(NC(=O)Cc2ccc(-c3cnc(Nc4cnn(C5CC5)c4)nc3)cc2F)cc1C(F)(F)F [Compound P-0239, 2-[4-[2-[(1-cyclopropylpyrazol-4-yl)amino]pyrimidin-5-yl]-2-fluoro-phenyl]-N-[6-methyl-5-(trifluoromethyl)-3-pyridyl]acetamide]
0.0001 to 10 µM	0.0001 to 10 µM	O=C(Cc1ccc(-c2cnc(Nc3cnn(C4CC4)c3)nc2)cc1F)Nc1cnc(Cl)c(C(F)(F)F)c1 [Compound P-0240, N-[6-chloro-5-(trifluoromethyl)-3-pyridyl]-2-[4-[2-[(1-cyclopropylpyrazol-4-yl)amino]pyrimidin-5-yl]-2-fluoro-phenyl]acetamide]
0.0001 to 10 µM	0.0001 to 10 µM	COc1ncc(NC(=O)Cc2ccc(-c3cnc(Nc4cnn(C5CC5)c4)nc3)cc2F)cc1C(F)(F)F [Compound P-0241, 2-[4-[2-[(1-cyclopropylpyrazol-4-yl)amino]pyrimidin-5-yl]-2-fluoro-phenyl]-N-[6-methoxy-5-(trifluoromethyl)-3-pyridyl]acetamide]
0.0001 to 10 µM	0.0001 to 10 µM	O=C(Cc1ccc(-c2cnc(Nc3cnn(C4CC4)c3)nc2)cc1F)Nc1ccc(C(F)(F)F)nc1 [Compound P-0242, 2-[4-[2-[(1-cyclopropylpyrazol-4-yl)amino]pyrimidin-5-yl]-2-fluoro-phenyl]-N-[6-(trifluoromethyl)-3-pyridyl]acetamide]

— US10160747B2, “Compounds and methods for kinase modulation, and indications therefor” (Plexxikon Inc., priority 2016, dated 2018)
